Measurements reported in patent US12528788B2, “Pesticidally active benzene- and azine-amide compounds” (SYNGENTA CROP PROTECTION AG, priority 2018, dated 2026).

Legend:
Type in all cases: in vivo
Diabrotica balteata = experiment: Example B1: Diabrotica balteata (corn root worm), maize sprouts sprayed, L2 larvae; conditions: 96 h, application rate of 200 ppm, 4 days after infestation, L2 larvae on maize sprouts, read-out: control in at least one of the two categories (mortality or growth inhibition)
Procedure: Example B1: Diabrotica balteata (Corn Root Worm)
Maize sprouts placed onto an agar layer in 24-well microtiter plates were treated with aqueous test solutions prepared from 10′000 ppm DMSO stock solutions by spraying. After drying, the plates were infested with L2 larvae (6 to 10 per well). The samples were assessed for mortality and growth inhibition in comparison to untreated samples 4 days after infestation.

Euschistus heros = experiment: Example B2: Euschistus heros (neotropical brown stink bug), soybean leaves sprayed, N2 nymphs; conditions: 120 h, application rate of 200 ppm, 5 days after infestation, N2 nymphs on soybean leaves, read-out: control in at least one of the two categories (mortality or growth inhibition)
Procedure: Example B2: Euschistus heros (Neotropical Brown Stink Bug)
Soybean leaves on agar in 24-well microtiter plates were sprayed with aqueous test solutions prepared from 10′000 ppm DMSO stock solutions. After drying the leaves were infested with N2 nymphs. The samples were assessed for mortality and growth inhibition in comparison to untreated samples 5 days after infestation.

Chilo suppressalis = experiment: Example B4: Chilo suppressalis (striped rice stemborer), artificial diet, L2 larvae; conditions: 144 h, application rate of 200 ppm, 6 days after infestation, read-out: control in at least one of the three categories (mortality, anti-feedant effect or growth inhibition)
Procedure: Example B4: Chilo suppressalis (Striped Rice Stemborer)
24-well microtiter plates with artificial diet were treated with aqueous test solutions prepared from 10′000 ppm DMSO stock solutions by pipetting. After drying, the plates were infested with L2 larvae (6-8 per well). The samples were assessed for mortality, anti-feeding effect, and growth inhibition in comparison to untreated samples 6 days after infestation. Control of Chilo suppressalis by a test sample is given when at least one of the categories mortality, anti-feedant effect, and growth inhibition is higher than the untreated sample.

Plutella xylostella [1] = experiment: Example B5: Plutella xylostella (diamond back moth), artificial diet, 24-well, eggs; conditions: 192 h, application rate of 200 ppm, 8 days after infestation, read-out: control in at least one of the two categories (mortality or growth inhibition)
Procedure: Example B5: Plutella xylostella (Diamond Back Moth)
24-well microtiter plates with artificial diet were treated with aqueous test solutions prepared from 10′000 ppm DMSO stock solutions by pipetting. After drying, Plutella eggs were pipetted through a plastic stencil onto a gel blotting paper and the plate was closed with it. The samples were assessed for mortality and growth inhibition in comparison to untreated samples 8 days after infestation.

Myzus persicae [2] = experiment: Example B8: Myzus persicae (green peach aphid) intrinsic activity; conditions: 120 h, test rate of 12 ppm, 5 days after infestation, sucrose solution
Description: Example B8: Myzus persicae (Green Peach Aphid). Intrinsic Activity
Test compounds prepared from 10′000 ppm DMSO stock solutions were applied by pipette into 24-well microtiter plates and mixed with sucrose solution. The plates were closed with a stretched Parafilm. A plastic stencil with 24 holes was placed onto the plate and infested pea seedlings were placed directly on the Parafilm. The infested plate was closed with a gel blotting paper and another plastic stencil and then turned upside down. The samples were assessed for mortality 5 days after infestation.

Spodoptera littoralis [3] = experiment: Example B9: Spodoptera littoralis (Egyptian cotton leaf worm), cotton leaf discs sprayed, L1 larvae; conditions: foliar, 72 h, application rate of 200 ppm, 3 days after infestation, read-out: control in at least one of the three categories (mortality, anti-feedant effect or growth inhibition)
Thrips tabaci = experiment: Example B12: Thrips tabaci (onion thrips) feeding/contact activity; conditions: foliar, 144 h, application rate of 200 ppm, 6 days after infestation, sunflower leaf discs
Procedure: Example B12: Thrips tabaci (Onion Thrips) Feeding/Contact Activity
(§1) Sunflower leaf discs were placed on agar in 24-well microtiter plates and sprayed with aqueous test solutions prepared from 10′000 ppm DMSO stock solutions. After drying the leaf discs were infested with a Thrips population of mixed ages. The samples were assessed for mortality 6 days after infestation.

Myzus persicae [4] = experiment: Example B13: Myzus persicae (green peach aphid), 96-well sucrose solution; conditions: 120 h, application rate of 50 ppm, 5 days after infestation
Description: Example B13: Myzus persicae (Green Peach Aphid)
Test compounds prepared from 10′000 ppm DMSO stock solutions were applied by a liquid handling robot into 96-well microtiter plates and mixed with a sucrose solution. Parafilm was stretched over the 96-well microtiter plate and a plastic stencil with 96 holes was placed onto the plate. Aphids were sieved into the wells directly onto the Parafilm. The infested plates were closed with a gel blotting card and a second plastic stencil and then turned upside down. The samples were assessed for mortality 5 days after infestation.

Plutella xylostella [5] = experiment: Example B14: Plutella xylostella (diamondback moth), 96-well artificial diet; conditions: 216 h, application rate of 500 ppm, 9 days after infestation
Procedure: Example B14: Plutella xylostella (Diamondback Moth)
96-well microtiter plates containing artificial diet were treated with aqueous test solutions, prepared from 10′000 ppm DMSO stock solutions, by a liquid handling robot. After drying, eggs (˜30 per well) were infested onto a netted lid which was suspended above the diet. The eggs hatch and L1 larvae move down to the diet. The samples were assessed for mortality 9 days after infestation.

[6] = system: Frankliniella occidentalis; experiment: Example B3: Frankliniella occidentalis (western flower thrips) feeding/contact activity; conditions: foliar, 168 h, application rate of 200 ppm, 7 days after infestation, sunflower leaf discs, mixed ages
Procedure: Example B3: Frankliniella occidentalis (Western Flower Thrips) Feeding/Contact Activity
as §1, with “[…]” for “10′000 ppm”, “Frankliniella” for “Thrips”, “7” for “6”

Myzus persicae [7] = experiment: Example B6: Myzus persicae (green peach aphid) feeding/contact activity; conditions: foliar, 144 h, application rate of 200 ppm, 6 days after infestation, sunflower leaf discs
Procedure: Example B6: Myzus persicae (Green Peach Aphid) Feeding/Contact Activity
Sunflower leaf discs were placed onto agar in a 24-well microtiter plate and sprayed with aqueous test solutions prepared from 10′000 ppm DMSO stock solutions. After drying, the leaf discs were infested with an aphid population of mixed ages. The samples were assessed for mortality 6 days after infestation.

Myzus persicae [8] = experiment: Example B7: Myzus persicae (green peach aphid) systemic activity; conditions: 144 h, test rate of 24 ppm, 6 days after placing seedlings into test solutions, pea seedlings
Procedure: Example B7: Myzus persicae (Green Peach Aphid) Systemic Activity
Roots of pea seedlings infested with an aphid population of mixed ages were placed directly into aqueous test solutions prepared from 10′000 DMSO stock solutions. The samples were assessed for mortality 6 days after placing seedlings into test solutions.

Spodoptera littoralis [9] = experiment: Example B10: Spodoptera littoralis (Egyptian cotton leaf worm), uptake by lettuce roots from agar; conditions: 144 h, test rate of 12.5 ppm, 6 days after infestation, lettuce grown on treated agar, read-out: control in at least one of the three categories (mortality, anti-feeding, or growth inhibition)
Description: Example B10: Spodoptera littoralis (Egyptian Cotton Leaf Worm)
Test compounds were applied by pipette from 10′000 ppm DMSO stock solutions into 24-well plates and mixed with agar. Lettuce seeds were placed onto the agar and the multi well plate was closed by another plate which contained also agar. After 7 days the compound was absorbed by the roots and the lettuce grew into the lid plate. The lettuce leaves were then cut off into the lid plate. Spodoptera eggs were pipetted through a plastic stencil onto a humid gel blotting paper and the lid plate was closed with it. The samples were assessed for mortality, anti-feedant effect and growth inhibition in comparison to untreated samples 6 days after infestation.

Tetranychus urticae = experiment: Example B11: Tetranychus urticae (two-spotted spider mite) feeding/contact activity; conditions: foliar, 192 h, application rate of 200 ppm, 8 days after infestation, bean leaf discs, mixed population (mobile stages)
Procedure: Example B11: Tetranychus urticae (Two-Spotted Spider Mite): Feeding/Contact Activity
as §1, with “Bean” for “Sunflower”, “discs” for “discs were placed”, “were” for “and”, “mite” for “Thrips”, “on mixed population (mobile stages) 8” for “6”

CC(c1nccnc1-c1ncccn1)N(CC1CC1)C(=O)c1cc(C(F)(F)F)cc(C(F)(F)F)c1 (centres unmarked) [Compound P5, N-(cyclopropylmethyl)-N-[1-(3-pyrimidin-2-ylpyrazin-2-yl)ethyl]-3,5-bis(trifluoromethyl)benzamide]
≥ 80%: percent control (mortality or growth inhibition) at 200 ppm (Diabrotica balteata) | percent control (mortality or growth inhibition) at 200 ppm (Euschistus heros) | percent control (mortality, anti-feedant effect or growth inhibition) at 200 ppm (Chilo suppressalis) | percent control (mortality or growth inhibition) at 200 ppm (Plutella xylostella [1]) | mortality at 12 ppm (Myzus persicae [2]) | percent control (mortality, anti-feedant effect or growth inhibition) at 200 ppm (Spodoptera littoralis [3]) | mortality at 200 ppm (Thrips tabaci) | mortality at 50 ppm (Myzus persicae [4]) | mortality at 500 ppm (Plutella xylostella [5])

CC(NC(=O)c1cc(SC(F)(F)F)cc(C(F)(F)F)c1)c1nccnc1-c1ncccn1 (centres unmarked) [Compound P19, N-[1-(3-pyrimidin-2-ylpyrazin-2-yl)ethyl]-3-(trifluoromethyl)-5-(trifluoromethylsulfanyl)benzamide]
≥ 80%: percent control (mortality or growth inhibition) at 200 ppm (Diabrotica balteata) | mortality at 200 ppm [6] | percent control (mortality, anti-feedant effect or growth inhibition) at 200 ppm (Chilo suppressalis) | percent control (mortality or growth inhibition) at 200 ppm (Plutella xylostella [1]) | mortality at 12 ppm (Myzus persicae [2]) | percent control (mortality, anti-feedant effect or growth inhibition) at 200 ppm (Spodoptera littoralis [3]) | mortality at 50 ppm (Myzus persicae [4]) | mortality at 500 ppm (Plutella xylostella [5])

CC(NC(=O)c1cc(OC(F)F)cc(C(F)(F)F)c1)c1nccnc1-c1ncccn1 (centres unmarked) [Compound P23, 3-(difluoromethoxy)-N-[1-(3-pyrimidin-2-ylpyrazin-2-yl)ethyl]-5-(trifluoromethyl)benzamide]
≥ 80%: percent control (mortality or growth inhibition) at 200 ppm (Diabrotica balteata) | percent control (mortality or growth inhibition) at 200 ppm (Euschistus heros) | percent control (mortality, anti-feedant effect or growth inhibition) at 200 ppm (Chilo suppressalis) | percent control (mortality or growth inhibition) at 200 ppm (Plutella xylostella [1]) | mortality at 200 ppm (Myzus persicae [7]) | mortality at 24 ppm (Myzus persicae [8]) | mortality at 12 ppm (Myzus persicae [2]) | percent control (mortality, anti-feedant effect or growth inhibition) at 200 ppm (Spodoptera littoralis [3]) | percent control (mortality, anti-feeding or growth inhibition) at 12.5 ppm (Spodoptera littoralis [9]) | mortality at 200 ppm (Tetranychus urticae) | mortality at 50 ppm (Myzus persicae [4]) | mortality at 500 ppm (Plutella xylostella [5])
